Laboratory results as given in PubChem BioAssay (NCI).
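1) Cells in 96-well plates. 2) Compound, 48 h, 5 concentrations. 3) Linear interpolation between surrounding doses. 4) Unreached endpoint = highest concentration. At the GI50, growth is halved. At the TGI there is no net growth.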

What was measured:
Assay in all cases: inhibition of tumour cell growth, NCI panel, 48 h
LOX IMVI melanoma = tested on: LOX IMVI melanoma
A498 renal = tested on: A498 renal
CAKI-1 renal = tested on: CAKI-1 renal
HCC-2998 colon = tested on: HCC-2998 colon
UACC-257 melanoma = tested on: UACC-257 melanoma
OVCAR-3 ovarian = tested on: OVCAR-3 ovarian
SF-268 CNS = tested on: SF-268 CNS
MOLT-4 leukemia = tested on: MOLT-4 leukemia
COLO 205 colon = tested on: COLO 205 colon
HCT-15 colon = tested on: HCT-15 colon

`Cc1ccc([N+](=O)[O-])c2c(NCCC[N+](C)(C)[O-])ccnc12` was tested, and the TGI (LOX IMVI melanoma) was > 100 µM, the TGI (A498 renal) was 90.5 µM and the TGI (CAKI-1 renal) was > 100 µM. The TGI (HCC-2998 colon) was 58.9 µM, the TGI (UACC-257 melanoma) was 69.8 µM and the TGI (OVCAR-3 ovarian) was > 100 µM. For the same compound, the TGI (SF-268 CNS) was > 100 µM, the TGI (MOLT-4 leukemia) was > 100 µM and the TGI (COLO 205 colon) was > 100 µM.
Work on `COc1ccc(C=C2C(=O)NC(=O)NC2=O)cc1OCc1ccccc1` yielded a GI50 (LOX IMVI melanoma) of 52.5 µg/mL, a GI50 (OVCAR-3 ovarian) of 17 µg/mL and a TGI (OVCAR-3 ovarian) of 39.3 µg/mL. It also gave a GI50 (SF-268 CNS) of 29.2 µg/mL and a GI50 (HCT-15 colon) of 30.8 µg/mL.
In the case of `NS(=O)(=O)c1ccc(NC(=O)c2cccc3c(Nc4ccc(S(N)(=O)=O)cc4)c4ccccc4nc23)cc1`, the TGI (LOX IMVI melanoma) is reported as > 100 µM, the TGI (A498 renal) is reported as > 100 µM and the TGI (CAKI-1 renal) is reported as > 100 µM. For the same compound, the TGI (UACC-257 melanoma) was > 100 µM, the TGI (OVCAR-3 ovarian) was 35.2 µM and the TGI (SF-268 CNS) was 65.3 µM. For the same compound, the TGI (HCT-15 colon) was > 100 µM, the TGI (MOLT-4 leukemia) was 39.8 µM and the TGI (COLO 205 colon) was > 100 µM.
With `N#CC(C(=O)CCC(=O)Nc1ccc(Cl)c(Cl)c1)c1ccc(Cl)cc1` (stereo unspecified) the TGI (LOX IMVI melanoma) was > 100 µM, the TGI (A498 renal) was > 100 µM and the TGI (CAKI-1 renal) was > 100 µM. The TGI (HCC-2998 colon) was > 100 µM, the TGI (UACC-257 melanoma) was > 100 µM and the TGI (OVCAR-3 ovarian) was > 100 µM. For the same compound, the TGI (SF-268 CNS) was > 100 µM, the TGI (HCT-15 colon) was > 100 µM and the TGI (MOLT-4 leukemia) was > 100 µM.
In the case of `O=C1NC(SCc2ccc(F)cc2)=N/C1=C/c1cccc(OCc2ccc(Cl)cc2)c1`, the GI50 (LOX IMVI melanoma) is reported as 6 µM, the TGI (LOX IMVI melanoma) is reported as > 100 µM and the GI50 (A498 renal) is reported as 3.53 µM. For the same compound, the TGI (A498 renal) was 26.2 µM, the GI50 (HCC-2998 colon) was 51.1 µM and the TGI (HCC-2998 colon) was > 100 µM. For the same compound, the GI50 (UACC-257 melanoma) was > 100 µM, the TGI (UACC-257 melanoma) was > 100 µM and the GI50 (OVCAR-3 ovarian) was 5.08 µM. The TGI (OVCAR-3 ovarian) was 31.5 µM, the GI50 (SF-268 CNS) was > 100 µM and the TGI (SF-268 CNS) was > 100 µM. For the same compound, the GI50 (HCT-15 colon) was 55.3 µM, the TGI (HCT-15 colon) was > 100 µM and the GI50 (MOLT-4 leukemia) was 31.6 µM. The TGI (MOLT-4 leukemia) was > 100 µM, the GI50 (COLO 205 colon) was > 100 µM and the TGI (COLO 205 colon) was > 100 µM.
`COC(=O)C1C(/C=C/c2ccoc2)ON2CCC[C@@H]12` (stereo partly specified) was tested, and the TGI (LOX IMVI melanoma) was > 100 µM, the TGI (CAKI-1 renal) was > 100 µM and the TGI (HCC-2998 colon) was > 100 µM. For the same compound, the TGI (UACC-257 melanoma) was > 100 µM, the TGI (OVCAR-3 ovarian) was > 100 µM and the TGI (SF-268 CNS) was > 100 µM. For the same compound, the TGI (COLO 205 colon) was > 100 µM.
With `COC1OC(C(C)O)C2OC(C)(C)OC12` (stereo unspecified) the TGI (LOX IMVI melanoma) was > 100 µM, the TGI (A498 renal) was > 100 µM and the TGI (CAKI-1 renal) was > 100 µM. For the same compound, the TGI (UACC-257 melanoma) was > 100 µM, the TGI (OVCAR-3 ovarian) was > 100 µM and the TGI (SF-268 CNS) was > 100 µM. For the same compound, the TGI (HCT-15 colon) was > 100 µM, the TGI (MOLT-4 leukemia) was > 100 µM and the TGI (COLO 205 colon) was > 100 µM.
For `Clc1ccc(/C=C/c2nc(Cl)c(-c3ccc(Cl)cc3)c(Cl)n2)cc1`, the TGI (LOX IMVI melanoma) was > 100 µM, the TGI (A498 renal) was > 100 µM and the TGI (CAKI-1 renal) was > 100 µM. The TGI (UACC-257 melanoma) was > 100 µM, the TGI (OVCAR-3 ovarian) was > 100 µM and the TGI (SF-268 CNS) was > 100 µM. The TGI (HCT-15 colon) was > 100 µM, the TGI (MOLT-4 leukemia) was > 100 µM and the TGI (COLO 205 colon) was > 100 µM.
For `O=C(Cn1c2ccccc2c2ccncc21)N/N=C\c1ccc2ccccc2c1`, the GI50 (LOX IMVI melanoma) was 28.6 µM, the TGI (LOX IMVI melanoma) was > 100 µM and the GI50 (A498 renal) was 27.5 µM. For the same compound, the TGI (A498 renal) was 80.8 µM, the GI50 (HCC-2998 colon) was 35.9 µM and the TGI (HCC-2998 colon) was > 100 µM. The GI50 (UACC-257 melanoma) was 42.1 µM, the TGI (UACC-257 melanoma) was > 100 µM and the GI50 (OVCAR-3 ovarian) was 12.2 µM. For the same compound, the TGI (OVCAR-3 ovarian) was 36.5 µM, the GI50 (SF-268 CNS) was 18.7 µM and the TGI (SF-268 CNS) was 91.6 µM. The GI50 (HCT-15 colon) was 14.7 µM, the TGI (HCT-15 colon) was > 100 µM and the GI50 (MOLT-4 leukemia) was 16.7 µM. The TGI (MOLT-4 leukemia) was > 100 µM, the GI50 (COLO 205 colon) was 25.8 µM and the TGI (COLO 205 colon) was > 100 µM.
With `OC1c2ccccc2C2C(O)c3ccccc3C12` (stereo unspecified) the TGI (LOX IMVI melanoma) was > 100 µM, the TGI (CAKI-1 renal) was > 100 µM and the TGI (HCC-2998 colon) was > 100 µM. The TGI (UACC-257 melanoma) was > 100 µM, the TGI (OVCAR-3 ovarian) was > 100 µM and the TGI (SF-268 CNS) was > 100 µM. The TGI (HCT-15 colon) was > 100 µM, the TGI (MOLT-4 leukemia) was > 100 µM and the TGI (COLO 205 colon) was > 100 µM.
For `CCOC(=O)C1Oc2ccc([N+](=O)[O-])cc2C1(C)O` (stereo unspecified), the TGI (LOX IMVI melanoma) was > 100 µM, the TGI (A498 renal) was > 100 µM and the TGI (HCC-2998 colon) was > 100 µM. The TGI (UACC-257 melanoma) was > 100 µM, the TGI (OVCAR-3 ovarian) was > 100 µM and the TGI (SF-268 CNS) was > 100 µM. For the same compound, the TGI (HCT-15 colon) was > 100 µM, the TGI (MOLT-4 leukemia) was > 100 µM and the TGI (COLO 205 colon) was > 100 µM.
